Legend:
hM1R = target: T1, hM1R (Homo sapiens, UniProt P11229); test: Radioligand competition binding, [3H]-scopolamine (N-methyl), CHO cell membranes, hM1R; details: 10 μM compound; radioligand binding; read-out: inhibition at 10 μM (M1)
T1 construct: expressed in transfected cells; host or cells: CHO cell membranes
T1 sequence (P11229 1-460): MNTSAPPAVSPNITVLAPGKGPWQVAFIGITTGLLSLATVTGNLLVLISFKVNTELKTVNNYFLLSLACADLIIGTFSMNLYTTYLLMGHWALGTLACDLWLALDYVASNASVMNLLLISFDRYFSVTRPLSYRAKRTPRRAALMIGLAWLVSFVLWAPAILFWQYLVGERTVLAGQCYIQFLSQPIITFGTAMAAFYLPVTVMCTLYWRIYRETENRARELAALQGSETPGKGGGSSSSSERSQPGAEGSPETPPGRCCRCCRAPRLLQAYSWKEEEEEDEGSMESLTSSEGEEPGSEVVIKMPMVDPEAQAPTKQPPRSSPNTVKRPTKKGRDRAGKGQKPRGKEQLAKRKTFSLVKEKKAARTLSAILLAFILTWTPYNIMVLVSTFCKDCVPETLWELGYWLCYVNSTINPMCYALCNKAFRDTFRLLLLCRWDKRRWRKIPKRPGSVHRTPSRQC

hM3R = target: T2, hM3R (Homo sapiens, UniProt P20309); test: Radioligand competition binding, [3H]-scopolamine (N-methyl), CHO cell membranes, hM3R; details: mean ± SD, n = 3; membranes from CHO cells transfected with hM3R; read-out: Receptor Ki M3
T2 construct: expressed in transfected cells; host or cells: CHO cell membranes

hM4R = target: T3, hM4R (Homo sapiens, UniProt P08173); test: Radioligand competition binding, [3H]-scopolamine (N-methyl), CHO cell membranes, hM4R; details: mean ± SD, n = 3; membranes from CHO cells transfected with hM4R; read-out: Receptor Ki M4
T3 construct: expressed in transfected cells; host or cells: CHO cell membranes
T3 sequence (P08173 1-479): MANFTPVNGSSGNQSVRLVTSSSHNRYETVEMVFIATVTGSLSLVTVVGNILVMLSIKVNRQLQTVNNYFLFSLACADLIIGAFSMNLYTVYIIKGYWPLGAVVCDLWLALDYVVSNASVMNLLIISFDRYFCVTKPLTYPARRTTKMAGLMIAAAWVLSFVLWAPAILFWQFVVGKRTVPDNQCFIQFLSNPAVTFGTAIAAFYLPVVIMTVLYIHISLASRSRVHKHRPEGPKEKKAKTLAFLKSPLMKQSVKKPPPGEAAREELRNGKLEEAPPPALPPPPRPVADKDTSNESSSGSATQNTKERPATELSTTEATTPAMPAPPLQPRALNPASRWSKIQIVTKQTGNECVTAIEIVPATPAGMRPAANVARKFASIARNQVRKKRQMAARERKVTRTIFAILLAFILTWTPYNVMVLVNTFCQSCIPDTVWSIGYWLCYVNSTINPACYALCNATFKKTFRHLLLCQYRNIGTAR

GLuc–M2R = target: T4, GLuc–M2R (Homo sapiens, UniProt P08172); test: BRET-based ligand binding on HEK 293T cells expressing GLuc–M2R
T4 construct: expressed in transfected cells
T4 sequence (P08172 1-466): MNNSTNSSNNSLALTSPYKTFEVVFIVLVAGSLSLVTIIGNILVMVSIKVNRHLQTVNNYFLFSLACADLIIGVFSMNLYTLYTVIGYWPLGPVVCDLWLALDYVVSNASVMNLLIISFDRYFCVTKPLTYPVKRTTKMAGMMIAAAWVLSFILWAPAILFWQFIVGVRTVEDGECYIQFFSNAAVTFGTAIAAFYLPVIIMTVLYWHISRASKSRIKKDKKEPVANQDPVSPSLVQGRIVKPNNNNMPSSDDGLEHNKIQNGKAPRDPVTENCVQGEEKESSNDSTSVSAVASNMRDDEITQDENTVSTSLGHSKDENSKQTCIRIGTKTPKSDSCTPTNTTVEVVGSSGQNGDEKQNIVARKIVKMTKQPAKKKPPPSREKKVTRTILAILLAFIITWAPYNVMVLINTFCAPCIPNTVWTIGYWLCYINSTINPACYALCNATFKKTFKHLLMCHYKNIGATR

M2R–Cerulean = target: T5, M2R–Cerulean (Homo sapiens, UniProt P08172); test: Confocal microscopy labeling of live HEK 293T cells; type: cell-based
T5 construct: expressed in transfected cells
T5 sequence (P08172 1-466): T4 sequence (P08172 1-466)

HA–M2R = target: T6, HA–M2R (Homo sapiens, UniProt P08172); test: Two-photon microscopy labeling of live HEK 293T cells; type: cell-based; details: 300 nM
T6 sequence (P08172 1-466): T4 sequence (P08172 1-466)
Text: We examined live M2R cells with two-photon microscopy as well (Figure ). A labeling pattern similar to that observed in the confocal microscopy studies was identified. Figure A illustrates 33 labeling in HA–M2R-transfected cells. […] Similarly to the confocal images, no dye labeling was detected inside the cells. Figure B presents a microscopic image of nontransfected cells, showing a minor degree of autofluorescence. […] For additional two-photon images, see Figures S7 and S8. […]
were examined using a two-photon laser scanning system (Femto2D-uncage, Femtonics Ltd., Budapest, Hungary). The imaging laser (Chameleon Ultra II, Coherent Ltd., Santa Clara, CA, USA) was set to 820 nm and to 2-3% intensity. The excitation was delivered to the slices and the fluorescent signal was collected using an XLUMPlanFI 20x lens (Olympus, Tokyo, Japan).
Before image acquisition, cells were washed twice, and the medium was replaced to modified Krebs–Ringer solution. After capturing the zero-point image, we added 300 nM 33. After two minutes we captured images in 33 and infrared transmission channels. After 3 minutes, unbound 33 was removed by washing the cells with modified Krebs–Ringer solution, and the image […]
(1 picture or pasted object on this page, not shown here)

T2 sequence (P20309 whole entry): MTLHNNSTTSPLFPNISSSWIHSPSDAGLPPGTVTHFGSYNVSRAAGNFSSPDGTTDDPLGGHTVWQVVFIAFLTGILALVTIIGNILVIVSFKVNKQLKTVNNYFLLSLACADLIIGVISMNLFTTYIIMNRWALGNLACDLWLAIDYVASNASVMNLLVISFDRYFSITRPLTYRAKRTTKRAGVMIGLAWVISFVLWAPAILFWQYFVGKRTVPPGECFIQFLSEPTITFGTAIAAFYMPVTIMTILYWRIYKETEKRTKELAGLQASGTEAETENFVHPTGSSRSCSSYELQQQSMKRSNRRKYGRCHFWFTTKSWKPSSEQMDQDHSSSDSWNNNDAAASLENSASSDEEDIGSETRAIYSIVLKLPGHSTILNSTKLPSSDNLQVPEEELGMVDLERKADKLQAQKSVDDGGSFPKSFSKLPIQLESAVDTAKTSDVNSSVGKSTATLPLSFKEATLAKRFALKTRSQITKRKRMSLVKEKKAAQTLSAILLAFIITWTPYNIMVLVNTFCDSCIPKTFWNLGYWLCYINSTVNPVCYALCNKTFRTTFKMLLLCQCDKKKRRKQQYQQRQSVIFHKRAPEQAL

- inhibition at 10 µM (hM1R): 38%
- Ki (hM3R): 55.6 ± 3.25 µM
- Ki (hM4R): 54.1 ± 10.4 nM
- Kd (GLuc–M2R; 1-hour treatment, nonspecific with 100 μM atropine, read-out: dissociation constant (KD), equilibrium BRET-based ligand binding): 119 nM
- kon (GLuc–M2R; BRET-based kinetic ligand binding, read-out: association rate constant): 8060 M⁻¹ s⁻¹
- koff (GLuc–M2R; read-out: dissociation rate constant): 0.000867 s⁻¹
- labeling of M2R–Cerulean-expressing cells (M2R–Cerulean; 300 nM, 3 min, live transfected HEK 293T): significant labeling
- labeling of nontransfected cells (M2R–Cerulean; 300 nM, 3 min, nontransfected HEK 293T): no labeling was observed
- labeling after atropine pretreatment (M2R–Cerulean; 100 μM atropine 5 min before 300 nM 33): no labeling
- labeling of HA–M2R-transfected cells (HA–M2R; excited at 820 nm, live HEK 293T): selectively only at the plasma membrane
- labeling of nontransfected cells (HA–M2R; nontransfected HEK 293T): no receptor labeling was observed
Compound: O=C(CCOCCOCCNC(=O)c1ccc(-c2c3cc(F)c(=O)cc-3oc3cc(O)c(F)cc23)c(C(=O)O)c1)NCCOCCOCCNc1ccccc1C(=O)N1CCC(N2CCC(Cc3ccc(S(=O)(=O)c4cccc(Cl)c4)cc3)CC2)CC1 [Compound 33]
